The record followed here is patent US20140206708A1, “COMPOSITION FOR OPHTHALMIC ADMINISTRATION” (Rigel Pharmaceuticals, Inc., priority 2013, published 2014).

≈ marks a conversion by molar mass, not a printed value.

The nature of one data set: Aqueous solubility. Format: physicochemical.
For data set [1] the following is noted: solution pH 8, stored at room temperature for approximately 16 months.

As a reminder, the solubility is the concentration that dissolves in the medium under given conditions. Read a low solubility as a poorly soluble substance. Consider `C#CCOc1ccc(Nc2nc(Nc3ccc(C)c(S(N)(=O)=O)c3)ncc2F)cc1` [Compound II, N2-(3-aminosulfonyl-4-methylphenyl)-5-fluoro-N4-[4-(prop-2-ynyloxy)phenyl]-2,4-pyrimidinediamine], for which the solubility in the data set “Aqueous solubility” (water (aqueous), room temperature) is about 0.9 µg/mL (≈ 2.11 µM).

With `C#CCOc1ccc(Nc2nc(Nc3ccc(C)c(S(=O)(=O)NC(=O)CC)c3)ncc2F)cc1.C[N+](C)(C)CCO` [VII, 5-Fluoro-N2-[4-methyl-3-(N-propionylaminosulfonyl)phenyl]-N4-[4-(2-propynyloxy)phenyl]-2,4-pyrimidinediamine Choline Salt], the “aqueous solubility compared with free acid form and compound II” value in “Aqueous solubility” is “significantly higher aqueous solubility than both its free acid form and compound II”. The solubility in water entry in the data set “Aqueous solubility” (in water) was “about 9.1 mg/mL”. The “compound I choline salt converted to compound II” value in data set [1] is recorded as “about 5%”.
